In patent publication US6638947B2, “Carbocyclic and heterocyclic substituted semicarbazones and thiosemicarbazones and the use thereof” (Euro-Celtique S.A., priority 1997, dated 2003):

Legend:
[1] = molecular target: T1, human skeletal muscle Na^+ channel subunit (Homo sapiens, UniProt P35499); test: Na^+ current recordings in HEK-293 cells stably expressing human skeletal muscle Na^+ channel subunit; type: cell-based
T1 construct: expressed in transfected cells
Method: The relative in vitro potency of these compounds were determined by their ability to inhibit human skeletal muscle Na^+ channel subunit stable expressed in HEK-293 cells. The techniques employed for Na^+ current recordings and analysis with the use of this cell line were similar to that described in example 36. These studies employ depolarizing prepulses of varying duration to allow drugs to bind, a brief (5 ms) repolarizing step to reprime unbound channels, followed by the test pulse (5 ms) to measure what proportion of channels are inhibited. The reduction in peak currents is then plotted as a function of prepulse duration and the time constant (τ) measured by monoexponential fit. A plot of 1/τ as a function of antagonist concentration then allows the macroscopic binding rates of the antagonists to be calculated. The anticonvulsant activities of additional compounds of the present invention were determined as described in example 38.

[2] = system: voltage-sensitive Na^+ channels; test: Electrophysiological assay: patch-clamp recordings of voltage-sensitive Na^+ currents in acutely dissociated hippocampal neurons; type: cell-based, rat
Method: Electrophysiological Assay:
Cell preparation: Acute cultures of rat hippocampal neurons were prepared daily using a modification of procedures described previously (Kuo and Bean, Mol. Pharm. 46:716-725 (1994)). Briefly, hippocampi were isolated from 3-11 day old rat pup brains (Sprague-Dawley; Charles River) and were sectioned, by hand, into 0.5-1 mm thick transverse slices (Whittemore and Koerner, Eur. J. Pharm. 192:435-438 (1991)). Slices were incubated for at least 30 min at room temperature (20-24° C.) in an oxygenated medium (124 mM NaCl, 3.3 mM KCl, 2.4 mM MgSO4, 2.5 mM CaCl2, 1.2 mM KH2PO4, 26 mM NaHCO3, pH =7.4) continuously bubbled with 5% CO2/95% O2. […]
Patch-clamp recordings of voltage-sensitive Na^+ currents: Whole-cell voltage-clamp recordings were made using conventional patch-clamp technique (Hamill et al., Pfluegers Arch. 391:85-100 (1981)) with an Axopatch 200A amplifier (Axon Instruments, Foster City, Calif.). […] Currents were recorded at room temperature (22-25° C.), filtered at 5 kHz with 4-pole Bessel filter, digitized at 20-50-μs intervals, and stored using Digidata 1200 analog/digital interface with Pclamp6/Clampex software (Axon Instruments). […] The inhibitory potency of drugs was assessed by measuring reductions in the peak amplitude of Na^+ currents induced by increasing concentrations of compounds tested. […]

[3] = system: site 2 of the Na^+ channel; type: binding, rat

T1 sequence (P35499 whole entry): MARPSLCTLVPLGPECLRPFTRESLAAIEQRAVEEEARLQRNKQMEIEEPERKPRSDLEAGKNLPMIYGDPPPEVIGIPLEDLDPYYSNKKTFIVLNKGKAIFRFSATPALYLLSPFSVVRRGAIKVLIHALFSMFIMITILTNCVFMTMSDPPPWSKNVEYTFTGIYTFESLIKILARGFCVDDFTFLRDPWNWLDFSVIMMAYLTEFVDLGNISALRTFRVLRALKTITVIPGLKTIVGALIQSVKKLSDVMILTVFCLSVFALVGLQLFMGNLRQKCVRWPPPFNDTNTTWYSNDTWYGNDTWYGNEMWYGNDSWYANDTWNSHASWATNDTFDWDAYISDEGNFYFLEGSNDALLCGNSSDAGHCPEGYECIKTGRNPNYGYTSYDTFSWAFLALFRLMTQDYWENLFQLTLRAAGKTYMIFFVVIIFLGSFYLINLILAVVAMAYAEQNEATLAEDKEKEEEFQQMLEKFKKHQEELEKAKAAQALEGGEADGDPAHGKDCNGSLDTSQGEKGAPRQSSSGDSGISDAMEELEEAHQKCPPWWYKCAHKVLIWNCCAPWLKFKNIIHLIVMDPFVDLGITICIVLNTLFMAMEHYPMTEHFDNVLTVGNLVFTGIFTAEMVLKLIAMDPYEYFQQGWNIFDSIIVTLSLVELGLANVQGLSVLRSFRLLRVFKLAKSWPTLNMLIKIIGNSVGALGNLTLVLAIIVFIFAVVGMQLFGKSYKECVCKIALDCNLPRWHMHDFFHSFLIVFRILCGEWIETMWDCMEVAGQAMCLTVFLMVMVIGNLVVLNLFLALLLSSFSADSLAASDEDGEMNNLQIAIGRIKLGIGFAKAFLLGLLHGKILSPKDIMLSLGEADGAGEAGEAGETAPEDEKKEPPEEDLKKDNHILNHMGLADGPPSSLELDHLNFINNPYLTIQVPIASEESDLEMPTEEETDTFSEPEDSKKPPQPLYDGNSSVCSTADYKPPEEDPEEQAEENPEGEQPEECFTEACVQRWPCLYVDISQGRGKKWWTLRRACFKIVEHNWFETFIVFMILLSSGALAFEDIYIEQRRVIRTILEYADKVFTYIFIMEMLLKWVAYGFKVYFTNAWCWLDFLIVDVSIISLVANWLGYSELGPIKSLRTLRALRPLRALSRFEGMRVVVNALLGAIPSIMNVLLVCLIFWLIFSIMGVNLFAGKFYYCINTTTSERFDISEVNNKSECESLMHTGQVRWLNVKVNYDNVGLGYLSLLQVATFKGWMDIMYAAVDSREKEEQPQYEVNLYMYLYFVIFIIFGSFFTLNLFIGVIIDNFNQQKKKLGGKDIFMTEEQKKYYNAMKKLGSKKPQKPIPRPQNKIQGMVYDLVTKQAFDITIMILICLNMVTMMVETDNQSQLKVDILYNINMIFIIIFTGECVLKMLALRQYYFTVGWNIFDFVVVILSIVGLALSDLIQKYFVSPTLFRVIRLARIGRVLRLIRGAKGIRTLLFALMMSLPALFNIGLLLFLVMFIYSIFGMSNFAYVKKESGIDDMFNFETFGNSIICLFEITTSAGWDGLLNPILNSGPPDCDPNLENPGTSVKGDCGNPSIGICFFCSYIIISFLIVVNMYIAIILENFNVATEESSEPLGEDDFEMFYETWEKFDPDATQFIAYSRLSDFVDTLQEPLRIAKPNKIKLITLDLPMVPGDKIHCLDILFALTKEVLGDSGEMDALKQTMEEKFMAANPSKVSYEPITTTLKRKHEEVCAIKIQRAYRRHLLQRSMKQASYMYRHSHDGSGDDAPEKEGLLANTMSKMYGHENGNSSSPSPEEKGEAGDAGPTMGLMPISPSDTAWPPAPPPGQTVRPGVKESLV

Compound | melting point [°C] | also measured
NC(=O)NN=Cc1ccc(Oc2ccc(Cl)cc2F)cc1 [4-(2-Fluoro-4-chlorophenoxy)benzaldehyde semicarbazone] | 218 to 220 | HsmNa^+ Ki [1]: 60 nM
NC(=O)NN=Cc1ccc(Oc2ccc(F)cc2)cc1 [4-(4-Fluorophenoxy) benzaldehyde semicarbazone] | – | effect on the overall shape of the Na^+ channel current-voltage relationship ([2]; measured at peak current): little effect
CN(N=Cc1ccc(Oc2ccc(F)cc2)c(F)c1)C(N)=O [4-(4-Fluorophenoxy)-3-fluorobenzaldehyde 2′-methylsemicarbazone] | 169 to 172 | –
NC(=O)NN=Cc1ccc(Oc2ccc(F)cc2)cc1 [4-(4-fluorophenoxy)benzaldehyde semicarbazone] | – | inhibition of voltage-gated Na^+ currents ([2]; acutely dissociated rat hippocampal neurons): dose-dependent inhibition
NC(=O)NN=Cc1ccc(Oc2ccc3c(c2)CCC3)cc1 [4-(5-indanoxy)benzaldehyde semicarbazone, 4-(5-Indanoxy)benzaldehyde semicarbazone] | – | HsmNa^+ Ki [1]: 40 nM
NC(=O)NN=Cc1ccc(OCC2CCCCC2)cc1 [Example 10, 4-(Cyclohexylmethoxy)benzaldehyde semicarbazone] | 218 to 219 | –
NC(=O)NN=Cc1ccc(OC2CCOCC2)cc1 [Example 12, 4-(4-Tetrahydropyranoxy)benzaldehyde semicarbazone] | 208 to 209 | –
NC(=O)NN=Cc1ccc(Oc2ccc([N+](=O)[O-])cc2)cc1 [Example 15, 4-(4-Nitrophenoxy)benzaldehyde semicarbazone] | 221 to 222 | –
CCCCCC(CC)Oc1ccc(C=NNC(N)=O)cc1 (stereo not shown) [Example 32b, 4-(3-Octoxy)benzaldehyde semicarbazone] | 45 | –
NC(=O)NN=Cc1ccc(Cc2ccccc2)cc1 [Example 33b, 4-Benzylbenzaldehyde semicarbazone] | 118 to 120 | –
NC(=O)NN=Cc1ccc(Oc2ccc(C(F)(F)F)cc2)cc1 [Example 34c, 4-(4-Trifluoromethylphenoxy)benzaldehyde semicarbazone] | 119 to 122 | –
NC1=N[C@H](O)[C@H]2[C@H]3O[C@]4(O)O[C@@H]([C@@H](O)[C@@]2(N1)[C@@H]4O)[C@]3(O)CO [Tetrodotoxin] | – | IC50 [3]: > 100000 nM
